Data taken from ChEMBL document CHEMBL1681651, “A broad spectrum anticancer nucleoside with selective toxicity against human colon cells in vitro” (2011).

Key:
Format in all cases: functional
[1] = tested on: SK-MEL-5; assay: Growth inhibition of human SK-MEL-5 cells assessed as cell growth at 100 uM after 48 hrs by SRB assay; settings: SK-MEL-5, 48 h, read-out: Activity
[2] = tested on: OVCAR-4; assay: Growth inhibition of human OVCAR4 cells assessed as cell growth at 10 uM after 48 hrs by SRB assay; settings: OVCAR-4, 48 h, read-out: Activity
[3] = tested on: SF-268; assay: Growth inhibition of human SF268 cells assessed as cell growth at 1 mM after 48 hrs by SRB assay; settings: SF-268, 48 h, read-out: Activity
[4] = tested on: MCF7; assay: Growth inhibition of human MCF7 cells assessed as cell growth at 10 uM after 48 hrs by SRB assay; settings: MCF7, 48 h, read-out: Activity
[5] = tested on: TK-10; assay: Growth inhibition of human TK10 cells assessed as cell growth at 1 uM after 48 hrs by SRB assay; settings: TK-10, 48 h, read-out: Activity
[6] = tested on: MDA-MB-435; assay: Growth inhibition of human MDA-MB-435 cells after 48 hrs by SRB assay; settings: MDA-MB-435, 48 h
[7] = tested on: A498; assay: Growth inhibition of human A498 cells assessed as cell growth at 100 uM after 48 hrs by SRB assay; settings: A498, 48 h, read-out: Activity
[8] = tested on: BT-549; assay: Growth inhibition of human BT549 cells assessed as cell growth at 0.1 uM after 48 hrs by SRB assay; settings: BT-549, 48 h, read-out: Activity
[9] = tested on: M14; assay: Growth inhibition of human M14 cells after 48 hrs by […] growth inhibition assay; settings: M14, 48 h
[10] = tested on: MCF7; assay: Growth inhibition of human MCF7 cells assessed as cell growth at 1 uM after 48 hrs by SRB assay; settings: MCF7, 48 h, read-out: Activity
[11] = tested on: RXF 393; assay: Growth inhibition of human RXF393 cells assessed as cell growth at 100 uM after 48 hrs by SRB assay; settings: RXF 393, 48 h, read-out: Activity
[12] = tested on: UACC-62; assay: Growth inhibition of human UACC62 cells after 48 hrs by […] growth inhibition assay; settings: UACC-62, 48 h
[13] = tested on: NCI-H460; assay: Growth inhibition of human NCI-H460 cells after 48 hrs by […] growth inhibition assay; settings: NCI-H460, 48 h
[14] = tested on: ACHN; assay: Growth inhibition of human ACHN cells assessed as cell growth at 1 uM after 48 hrs by SRB assay; settings: read-out: Activity
[15] = tested on: Malme-3M; assay: Growth inhibition of human MALME-3M cells assessed as cell growth at 0.1 uM after 48 hrs by SRB assay; settings: read-out: Activity
[16] = tested on: HOP-62; assay: Growth inhibition of human HOP62 cells after 48 hrs by […] growth inhibition assay; settings: HOP-62, 48 h
[17] = tested on: SNB-75; assay: Growth inhibition of human SNB75 cells after 48 hrs by […] growth inhibition assay; settings: SNB-75, 48 h
[18] = tested on: SK-MEL-2; assay: Growth inhibition of human SK-MEL-2 cells assessed as cell growth at 10 uM after 48 hrs by SRB assay; settings: SK-MEL-2, 48 h, read-out: Activity
[19] = tested on: SK-MEL-5; assay: Growth inhibition of human SK-MEL-5 cells assessed as cell growth at 0.1 uM after 48 hrs by SRB assay; settings: SK-MEL-5, 48 h, read-out: Activity
[20] = tested on: DU-145; assay: Growth inhibition of human DU145 cells assessed as cell growth at 100 uM after 48 hrs by SRB assay; settings: DU-145, 48 h, read-out: Activity
[21] = tested on: OVCAR-3; assay: Growth inhibition of human OVCAR3 cells assessed as cell growth at 1 mM after 48 hrs by SRB assay; settings: OVCAR-3, 48 h, read-out: Activity
[22] = tested on: SF-295; assay: Growth inhibition of human SF295 cells assessed as cell growth at 100 uM after 48 hrs by SRB assay; settings: SF-295, 48 h, read-out: Activity
[23] = tested on: A549; assay: Growth inhibition of human A549 cells assessed as cell growth at 10 uM after 48 hrs by SRB assay; settings: A549, 48 h, read-out: Activity
[24] = tested on: OVCAR-4; assay: Growth inhibition of human OVCAR4 cells assessed as cell growth at 0.1 uM after 48 hrs by SRB assay; settings: OVCAR-4, 48 h, read-out: Activity
[25] = tested on: U-251; assay: Growth inhibition of human U251 cells assessed as cell growth at 1 uM after 48 hrs by SRB assay; settings: U-251, 48 h, read-out: Activity
[26] = tested on: EKVX; assay: Growth inhibition of human EKVX cells assessed as cell growth at 1 uM after 48 hrs by SRB assay; settings: read-out: Activity
[27] = tested on: SF-539; assay: Growth inhibition of human SF539 cells assessed as cell growth at 100 uM after 48 hrs by SRB assay; settings: SF-539, 48 h, read-out: Activity
[28] = tested on: SF-295; assay: Growth inhibition of human SF295 cells assessed as cell growth at 0.1 uM after 48 hrs by SRB assay; settings: SF-295, 48 h, read-out: Activity
[29] = tested on: RXF 393; assay: Growth inhibition of human RXF393 cells assessed as cell growth at 1 mM after 48 hrs by SRB assay; settings: RXF 393, 48 h, read-out: Activity
[30] = tested on: OVCAR-8; assay: Growth inhibition of human OVCAR8 cells assessed as cell growth at 0.1 uM after 48 hrs by SRB assay; settings: OVCAR-8, 48 h, read-out: Activity
[31] = tested on: MCF7; assay: Growth inhibition of human MCF7 cells assessed as cell growth at 0.1 uM after 48 hrs by SRB assay; settings: MCF7, 48 h, read-out: Activity
[32] = tested on: M14; assay: Growth inhibition of human M14 cells assessed as cell growth at 100 uM after 48 hrs by SRB assay; settings: M14, 48 h, read-out: Activity
[33] = tested on: UACC-62; assay: Growth inhibition of human UACC62 cells assessed as cell growth at 100 uM after 48 hrs by SRB assay; settings: UACC-62, 48 h, read-out: Activity
[34] = tested on: SF-295; assay: Growth inhibition of human SF295 cells assessed as cell growth at 10 uM after 48 hrs by SRB assay; settings: SF-295, 48 h, read-out: Activity
[35] = read-out: LC50 (the source's name)
[36] = read-out: pLC50 (the source's name) (converted)

CCOC(=O)C[C@H]1[C@@H](O[Si](C)(C)C(C)(C)C)[C@H](n2cnc3c(NC(=O)Nc4ccccc4)ncnc32)O[C@@H]1CNC(=O)NC
growth at 100 µM [1]: 28% | growth at 10 µM [2]: 95% | growth at 1000 µM [3]: -53% | growth at 10 µM [4]: 89% | growth at 1 µM [5]: 103% | GI50 ([6]; read-out: GI50): 6.21 µM | LC50 ([6]; read-out: LC50): > 100 µM | TGI ([6]; read-out: TGI): > 100 µM | GI50 ([6]; read-out: pGI50 (converted)): 6.17 µM | LC50 ([6]; read-out: pLC50 (converted)): > 100 µM | TGI ([6]; read-out: pTGI (converted)): > 100 µM | growth at 100 µM [7]: 13% | growth at 0.1 µM [8]: 104% | GI50 ([9]; read-out: GI50): 2.51 µM | CC50 [9, 35]: 78.6 µM | TGI ([9]; read-out: TGI): 11.6 µM | GI50 ([9]; read-out: pGI50 (converted)): 2.51 µM | CC50 [9, 36]: 79.4 µM | TGI ([9]; read-out: pTGI (converted)): 11.5 µM | growth at 1 µM [10]: 91% | growth at 100 µM [11]: -46% | GI50 ([12]; read-out: GI50): > 100 µM | CC50 [12, 35]: > 100 µM | TGI ([12]; read-out: TGI): > 100 µM | GI50 ([12]; read-out: pGI50 (converted)): > 100 µM | CC50 [12, 36]: > 100 µM | TGI ([12]; read-out: pTGI (converted)): > 100 µM | GI50 ([13]; read-out: GI50): 5.54 µM | CC50 [13, 35]: > 100 µM | TGI ([13]; read-out: TGI): 25 µM | GI50 ([13]; read-out: pGI50 (converted)): 5.5 µM | CC50 [13, 36]: > 100 µM | TGI ([13]; read-out: pTGI (converted)): 25.1 µM | growth at 1 µM [14]: 97% | growth at 0.1 µM [15]: 104% | GI50 ([16]; read-out: GI50): 8.96 µM | CC50 [16, 35]: 73.1 µM | TGI ([16]; read-out: TGI): 26.4 µM | GI50 ([16]; read-out: pGI50 (converted)): 8.91 µM | CC50 [16, 36]: 72.4 µM | TGI ([16]; read-out: pTGI (converted)): 26.3 µM | GI50 ([17]; read-out: GI50): 4.56 µM | CC50 [17, 35]: > 100 µM | TGI ([17]; read-out: TGI): > 100 µM | GI50 ([17]; read-out: pGI50 (converted)): 4.57 µM | CC50 [17, 36]: > 100 µM | TGI ([17]; read-out: pTGI (converted)): > 100 µM | growth at 10 µM [18]: 99% | growth at 0.1 µM [19]: 96% | growth at 100 µM [20]: 24% | growth at 1000 µM [21]: -53% | growth at 100 µM [22]: 38% | growth at 10 µM [23]: 94% | growth at 0.1 µM [24]: 98% | growth at 1 µM [25]: 95% | growth at 1 µM [26]: 90% | growth at 100 µM [27]: 29% | growth at 0.1 µM [28]: 91% | growth at 1000 µM [29]: -59% | growth at 0.1 µM [30]: 99% | growth at 0.1 µM [31]: 96% | growth at 100 µM [32]: 4% | growth at 100 µM [33]: 82% | growth at 10 µM [34]: 88%

CNC(=O)NC[C@H]1O[C@@H](n2cnc3c(NC(=O)Nc4ccccc4)ncnc32)[C@H](O[Si](C)(C)C(C)(C)C)[C@@H]1CC(=O)N(C)OC
growth at 100 µM [1]: 38% | growth at 10 µM [2]: 96% | growth at 1000 µM [3]: 20% | growth at 10 µM [4]: 96% | growth at 1 µM [5]: 106% | GI50 ([6]; read-out: GI50): 10.9 µM | LC50 ([6]; read-out: LC50): > 100 µM | TGI ([6]; read-out: TGI): > 100 µM | GI50 ([6]; read-out: pGI50 (converted)): 11 µM | LC50 ([6]; read-out: pLC50 (converted)): > 100 µM | TGI ([6]; read-out: pTGI (converted)): > 100 µM | growth at 100 µM [7]: 24% | growth at 0.1 µM [8]: 95% | GI50 ([9]; read-out: GI50): 15.2 µM | CC50 [9, 35]: > 100 µM | TGI ([9]; read-out: TGI): > 100 µM | GI50 ([9]; read-out: pGI50 (converted)): 15.1 µM | CC50 [9, 36]: > 100 µM | TGI ([9]; read-out: pTGI (converted)): > 100 µM | growth at 1 µM [10]: 95% | growth at 100 µM [11]: 49% | GI50 ([12]; read-out: GI50): 41.9 µM | CC50 [12, 35]: > 100 µM | TGI ([12]; read-out: TGI): > 100 µM | GI50 ([12]; read-out: pGI50 (converted)): 41.7 µM | CC50 [12, 36]: > 100 µM | TGI ([12]; read-out: pTGI (converted)): > 100 µM | GI50 ([13]; read-out: GI50): 7.49 µM | CC50 [13, 35]: > 100 µM | TGI ([13]; read-out: TGI): > 100 µM | GI50 ([13]; read-out: pGI50 (converted)): 7.41 µM | CC50 [13, 36]: > 100 µM | TGI ([13]; read-out: pTGI (converted)): > 100 µM | growth at 1 µM [14]: 102% | growth at 0.1 µM [15]: 103% | GI50 ([16]; read-out: GI50): 24.9 µM | CC50 [16, 35]: > 100 µM | TGI ([16]; read-out: TGI): > 100 µM | GI50 ([16]; read-out: pGI50 (converted)): 25.1 µM | CC50 [16, 36]: > 100 µM | TGI ([16]; read-out: pTGI (converted)): > 100 µM | GI50 ([17]; read-out: GI50): 12.7 µM | CC50 [17, 35]: > 100 µM | TGI ([17]; read-out: TGI): > 100 µM | GI50 ([17]; read-out: pGI50 (converted)): 12.9 µM | CC50 [17, 36]: > 100 µM | TGI ([17]; read-out: pTGI (converted)): > 100 µM | growth at 10 µM [18]: 92% | growth at 0.1 µM [19]: 104% | growth at 100 µM [20]: 60% | growth at 1000 µM [21]: 6% | growth at 100 µM [22]: 48% | growth at 10 µM [23]: 97% | growth at 0.1 µM [24]: 100% | growth at 1 µM [25]: 101% | growth at 1 µM [26]: 95% | growth at 100 µM [27]: 65% | growth at 0.1 µM [28]: 93% | growth at 1000 µM [29]: -36% | growth at 0.1 µM [30]: 107% | growth at 0.1 µM [31]: 91% | growth at 100 µM [32]: 57% | growth at 100 µM [33]: 69% | growth at 10 µM [34]: 98%
